Where only a bound is given, the exact number is not on record here.

In data set [1] the target is T1, C3a anaphylatoxin chemotactic receptor (Homo sapiens, UniProt Q16581).
T1 sequence (Q16581 whole entry): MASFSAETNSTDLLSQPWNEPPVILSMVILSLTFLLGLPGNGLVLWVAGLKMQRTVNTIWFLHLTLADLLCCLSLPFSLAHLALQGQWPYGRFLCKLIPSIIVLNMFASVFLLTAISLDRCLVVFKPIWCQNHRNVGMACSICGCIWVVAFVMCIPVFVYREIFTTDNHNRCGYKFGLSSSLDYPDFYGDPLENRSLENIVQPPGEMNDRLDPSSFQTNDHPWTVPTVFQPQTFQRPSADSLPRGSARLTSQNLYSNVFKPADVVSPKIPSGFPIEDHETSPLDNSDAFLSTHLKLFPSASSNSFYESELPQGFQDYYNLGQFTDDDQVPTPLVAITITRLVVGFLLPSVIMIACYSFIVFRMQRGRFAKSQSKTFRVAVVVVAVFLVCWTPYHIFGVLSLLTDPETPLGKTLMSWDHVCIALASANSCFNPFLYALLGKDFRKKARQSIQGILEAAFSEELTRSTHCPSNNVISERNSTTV
As to the kind of experiment: Inhibition of human C3a receptor expressed on HMC1 cells by SPA assay. It counts as cell-based.

The target in data set [2] is T1, C3a anaphylatoxin chemotactic receptor. As to the kind of experiment: Antagonist activity at C3aR. It counts as functional.
Data set [3] shares this target. Kind of data set: Agonist activity at C3a receptor expressed on HMC1 cells. It counts as functional, cell-based.
The nature of data set [4]: Peak plasma concentration in ovalbumin-induced BALB/c mouse model of airway inflammation at 3 mg/ml aerosol after 30 mins. It counts as ADME, organism-based. The settings on record: inhaled or intranasal.
A short description of data set [5]: Metabolic clearance in rat liver microsomes. It counts as ADME, Microsome.
Data set [6] can be described thus: Metabolic clearance in rat hepatocytes assessed per 10^6 cells. It counts as ADME, cell-based, Liver, Hepatocyte.
Another data set concerns the target CYP2D6 (Homo sapiens, UniProt P10635). Kind of data set: Inhibition of CYP2D6 at 50 uM. It counts as ADME.
For a further data set, the target named is CYP3A4 (Homo sapiens, UniProt P08684). Kind of data set: Inhibition of CYP3A4 at 50 uM. In kind it is ADME.
Data set [7] is described as follows: Permeability from apical to basolateral side in Caco-2 cells. It counts as ADME, cell-based. Conditions: human, read-out: permeability.
Data set [8] can be described thus: Bioavailability in rats at 1 mg/kg, po. It counts as ADME, organism-based. Conditions: rat, in vivo.
Data set [9] is described as follows: Bioavailability in rats at 1 mg/kg, […]. It counts as ADME, organism-based. The settings on record: rat, in vivo.
The nature of data set [10]: Peak plasma concentration in ovalbumin-induced BALB/c mouse model of airway inflammation at 30 mg/kg, ip after 30 mins. More on the design: dose 30 mg/kg, route intraperitoneal. In kind it is ADME, organism-based.

CYP3A4, sequence (P08684 whole entry): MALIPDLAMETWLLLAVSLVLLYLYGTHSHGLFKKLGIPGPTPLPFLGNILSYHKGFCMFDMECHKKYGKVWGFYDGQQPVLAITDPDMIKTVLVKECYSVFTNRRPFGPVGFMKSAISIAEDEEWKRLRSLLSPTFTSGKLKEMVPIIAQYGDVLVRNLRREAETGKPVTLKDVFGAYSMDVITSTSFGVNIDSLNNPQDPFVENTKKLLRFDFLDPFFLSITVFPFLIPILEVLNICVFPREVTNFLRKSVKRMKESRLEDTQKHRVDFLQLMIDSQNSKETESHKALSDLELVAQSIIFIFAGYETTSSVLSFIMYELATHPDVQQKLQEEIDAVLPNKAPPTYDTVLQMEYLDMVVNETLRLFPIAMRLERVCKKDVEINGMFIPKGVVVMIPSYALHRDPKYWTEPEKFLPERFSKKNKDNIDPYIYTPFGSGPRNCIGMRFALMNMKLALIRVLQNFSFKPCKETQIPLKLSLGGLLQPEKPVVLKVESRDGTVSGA
CYP2D6, sequence (P10635 whole entry): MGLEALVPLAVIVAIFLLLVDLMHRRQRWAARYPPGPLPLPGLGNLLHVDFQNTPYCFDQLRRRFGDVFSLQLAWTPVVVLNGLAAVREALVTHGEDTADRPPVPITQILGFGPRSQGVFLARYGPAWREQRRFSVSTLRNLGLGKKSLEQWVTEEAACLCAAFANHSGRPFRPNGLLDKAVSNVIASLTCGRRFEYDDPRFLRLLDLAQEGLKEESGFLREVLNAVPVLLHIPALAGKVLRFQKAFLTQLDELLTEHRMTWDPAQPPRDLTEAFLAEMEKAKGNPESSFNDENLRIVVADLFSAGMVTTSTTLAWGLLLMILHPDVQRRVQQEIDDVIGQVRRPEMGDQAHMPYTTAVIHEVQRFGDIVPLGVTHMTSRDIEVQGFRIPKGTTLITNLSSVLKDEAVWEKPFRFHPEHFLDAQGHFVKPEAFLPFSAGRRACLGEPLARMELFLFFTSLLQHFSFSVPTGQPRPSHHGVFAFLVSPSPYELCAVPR

Broadly, the IC50 is the midpoint of a concentration-inhibition curve. Higher therefore signals a need for much substance. The compound `Cc1ccc(Cl)cc1-c1ccc(C(=O)N[C@H](CCCN=C(N)N)C(=O)O)o1` showed an IC50 in [1] of 794 nM.

Regarding `N=C(N)NCCC[C@@H](NC(=O)c1ccc(-c2csc3ccccc23)o1)C(=O)O`, in [1], the IC50 is 316 nM.

Compound `NC(N)=NCCC[C@@H](NC(=O)c1ccc(-c2cccc3c2oc2ccccc23)o1)C(=O)O` had a concentration for half-maximal inhibition (IC50) in data set [1] of 3980 nM.

In the case of `N=C(N)NCCC[C@@H](NC(=O)c1ccc(-c2cccc(Cl)c2)cc1)C(=O)O`, it took 100000 nM to reach half-maximal inhibition in [1] (IC50).

As a reminder, the EC50 is the concentration that produces a half-maximal response. With `NC(N)=NCCC[C@@H](NC(=O)c1cccc(-c2cccc(Cl)c2)c1)C(=O)O`, the IC50 in data set [1] is 794 nM. This compound had an EC50 in data set [2] of 3980 nM.

As to `NC(N)=NCCC[C@@H](NC(=O)N1CCN(C(c2ccccc2)c2ccccc2)CC1)C(=O)O`, the IC50 in [1] is 50100 nM.

In turn, `N=C(N)NCCC[C@@H](NC(=O)c1ccc(C(c2ccccc2)c2ccccc2)cc1)C(=O)O` had a 50% inhibitory concentration (IC50) in data set [1] of 794 nM.

The compound `N=C(N)NCCC[C@@H](NC(=O)c1ccc(C(c2cccc(F)c2)c2cccc(F)c2)o1)C(=O)O` showed an IC50 in [1] of 31.6 nM. Moreover, the EC50 in data set [2] was 1260 nM.

With `NC(N)=NCCC[C@@H](NC(=O)c1ccc(C(c2ccc(Cl)cc2)c2ccc(Cl)cc2)o1)C(=O)O`, half-maximal inhibition in data set [1] (IC50) required 158 nM. In data set [3], a half-maximal response (EC50) required 126 nM.

In general, Cmax refers to the maximum level reached in the sampled fluid or tissue. As usually defined, the microsomal CLint is the capacity of the preparation to metabolise the compound, expressed as a volume cleared per time. In general, hepatocyte CLint refers to the capacity of the preparation to metabolise the compound, expressed as a volume cleared per time. Usually inhibition stands for the share of the control response that was lost under treatment. Higher therefore signals a response far below the control. The bioavailability is dose-corrected exposure relative to a reference, in per cent. Consider `N=C(N)NCCC[C@H](NC(=O)c1ccc(C(c2ccccc2)c2ccccc2)o1)C(=O)O`, for which the Cmax in data set [4] turned out to be 27 ng/mL; in [10], 33800 ng/mL. Further, the intrinsic metabolic clearance (microsomal CLint) in data set [5] was determined as 4 µL/min/mg. For the same compound, in [6], the hepatocyte CLint came out at 5 µL/min/1e6 cells. For the same compound, the inhibition at 50 µM against CYP2D6 is 12%; on CYP3A4, 0%. For the same compound, in data set [7], the Papp A→B is 0.4 ×10⁻⁶ cm/s. Also, the bioavailability in data set [8] and in data set [9] was under 1% throughout.

For the compound `Cc1cccc(-c2ccc(C(=O)N[C@H](CCCNC(=N)N)C(=O)O)o2)c1`, in data set [1], the IC50 was 126 nM.

Turning to `N#Cc1cccc(-c2ccc(C(=O)N[C@H](CCCNC(=N)N)C(=O)O)o2)c1`, it took 200 nM to reach half-maximal inhibition in data set [1] (IC50).

In turn, `N=C(N)NCCC[C@@H](NC(=O)c1ccc(-c2cccc(Cl)c2)o1)C(=O)O` showed an IC50 in data set [1] of 79.4 nM. In addition, in data set [3], the EC50 was 501 nM.

Turning to `NC(N)=NCCC[C@@H](NC(=O)c1ccc(-c2ccc(F)c(Cl)c2)o1)C(=O)O`, it took 200 nM to reach half-maximal inhibition in [1] (IC50).

Regarding `N=C(N)NCCC[C@@H](NC(=O)c1ccc(-c2cc(Cl)ccc2Cl)o1)C(=O)O`, half-maximal inhibition in data set [1] (IC50) required 1580 nM.

In data set [1], `N=C(N)NCCC[C@@H](NC(=O)c1ccc(C(c2cccc(Cl)c2)c2cccc(Cl)c2)o1)C(=O)O` gave an IC50 of 15.8 nM. Moreover, the 50% effective concentration (EC50) in data set [3] is 20 nM.

In data set [1], `N=C(N)NCCC[C@H](NC(=O)COCC(c1ccccc1)c1ccccc1)C(=O)O` gave an IC50 of 501 nM.

Regarding `N=C(N)NCCC[C@@H](NC(=O)c1ccc(-c2cccc(F)c2)o1)C(=O)O`, in data set [1], the IC50 was 316 nM.

For the compound `N=C(N)NCCC[C@@H](NC(=O)c1ccc(-c2cccc(Cl)c2)s1)C(=O)O`, in [1], the IC50 was 6310 nM. Besides, the EC50 in data set [2] was 15800 nM.

In [1], `COc1cccc(-c2ccc(C(=O)N[C@H](CCCN=C(N)N)C(=O)O)o2)c1` had an IC50 of 316 nM.

With `N=C(N)NCCC[C@@H](NC(=O)c1ccc(-c2cccc(CO)c2)o1)C(=O)O`, half-maximal inhibition in [1] (IC50) was put at 794 nM.

Consider `CCOc1cccc(-c2ccc(C(=O)N[C@H](CCCN=C(N)N)C(=O)O)o2)c1`, for which the IC50 in data set [1] was 200 nM.

These data come from ChEMBL document CHEMBL1145356, “Discovery of new C3aR ligands. Part 1: arginine derivatives” (Bioorg Med Chem Lett, 2007).
